Source: ChEMBL document CHEMBL1165848, “Discovery of new cholesteryl ester transfer protein inhibitors via ligand-based pharmacophore modeling and QSAR analysis followed by synthetic exploration” (Eur J Med Chem, 2010)

These compounds were tested against T1, Cholesteryl ester transfer protein (Oryctolagus cuniculus, UniProt P22687) (assay: Inhibition of CETP in rabbit serum after 1 hr by fluorescent cholesteryl esters transfer assay). Conditions: read-out: IC50.
T1 sequence (P22687 whole entry): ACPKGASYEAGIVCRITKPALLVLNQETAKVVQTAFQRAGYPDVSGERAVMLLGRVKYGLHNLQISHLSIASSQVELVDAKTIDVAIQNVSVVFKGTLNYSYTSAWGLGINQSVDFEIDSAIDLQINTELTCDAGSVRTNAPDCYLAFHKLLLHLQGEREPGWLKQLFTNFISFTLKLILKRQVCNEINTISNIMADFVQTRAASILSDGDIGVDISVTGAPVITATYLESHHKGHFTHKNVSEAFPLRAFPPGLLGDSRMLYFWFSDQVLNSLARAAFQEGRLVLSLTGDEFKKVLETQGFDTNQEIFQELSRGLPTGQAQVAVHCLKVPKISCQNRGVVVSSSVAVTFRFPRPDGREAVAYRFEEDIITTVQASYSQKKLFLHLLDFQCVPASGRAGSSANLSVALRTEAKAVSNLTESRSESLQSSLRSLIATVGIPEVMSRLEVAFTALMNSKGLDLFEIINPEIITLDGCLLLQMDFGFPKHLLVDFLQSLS
Compound `COc1ccc(Cl)cc1C(=O)NCCc1ccc(S(=O)(=O)NC(=O)NC2CCCCC2)cc1` [GLYBURIDE] has an IC50 of 239000 nM.
Compound `CCCCCCCCOC(=O)c1ccc2c(c1)Nc1cc3ccccc3cc1N2` has an IC50 of 60300 nM.
For `CCN(CC)c1ccc(Nc2ccc(CC(=O)c3ccccc3)cc2)cc1`, the IC50 was 6500 nM.
Work on `OC(CN(Cc1cccc(-c2ncccc2C(F)(F)F)c1)c1cccc(Oc2ccccc2)c1)C(F)(F)F` (configuration not stated) yielded an IC50 of 4080 nM.
With `O=S(=O)(Nc1ccc(CSc2ccc(Cl)cc2)cc1)c1ccccc1` the IC50 was 1900 nM.
With `O=[N+]([O-])c1ccccc1Oc1cccc(N(Cc2cccc(OC(F)(F)C(F)F)c2)CC(O)C(F)(F)F)c1` (configuration not stated) the IC50 was 400 nM.
`COC(=O)c1cccc(CN(CC(O)C(F)(F)F)c2cccc(Oc3ccccc3)c2)c1` (configuration not stated) showed an IC50 of 16000 nM.
`OC(CN(Cc1ccc2c(c1)OC(F)(F)C(F)(F)O2)c1cccc(Oc2ccccc2)c1)C(F)(F)F` (configuration not stated) gave an IC50 of 12000 nM.
For `OC(CN(Cc1cccc(-c2cccs2)c1)c1cccc(Oc2ccccc2)c1)C(F)(F)F` (configuration not stated), the IC50 was 1120 nM.
For `COc1cccc(Oc2cccc(N(Cc3cccc(OCC(O)C(F)(F)F)c3)CC(O)C(F)(F)F)c2)c1` (configuration not stated), the IC50 was 1300 nM.
`Cc1ccc(Oc2cccc(N(Cc3cccc(OC(F)(F)C(F)F)c3)C[C@@H](O)C(F)(F)F)c2)cc1` was tested, and the IC50 was 8.1 nM.
`OC(CN(Cc1ccccc1C(F)(F)F)c1cccc(F)c1)C(F)(F)F` (configuration not stated) gave an IC50 greater than 100000 nM.
Work on `OC(CN(Cc1cccc(OC(F)(F)C(F)F)c1)c1cccc(Oc2cccc(F)c2F)c1)C(F)(F)F` (configuration not stated) yielded an IC50 of 100 nM.
With `Cc1cc(Oc2cccc(N(Cc3cccc(OC(F)(F)C(F)F)c3)CC(O)C(F)(F)F)c2)ccc1F` (configuration not stated) the IC50 was 80 nM.

These compounds were tested against T2, Cholesteryl ester transfer protein (Oryctolagus cuniculus) (UniProt P22687) (assay: Inhibition of CETP in rabbit serum at 10 uM after 1 hr by fluorescent cholesteryl esters transfer assay). Conditions: not given.
T2 sequence (whole entry): T1 sequence (P22687 whole entry)
In the case of `O=C(COc1cccc(Cl)c1)Nc1cccc(CN2C(=O)c3ccccc3C2=O)c1`, the inhibition is reported as 0%.
In the case of `CN(CN(C)/N=C\c1ccc(Cl)cc1)/N=C\c1ccc(Cl)cc1`, the inhibition is reported as 0%.
For `Cc1ccc(NC(=O)c2ccc(C(=O)Nc3ccc(C)c(Cl)c3)cc2)cc1Cl`, the inhibition was 0%.
In the case of `COc1ccc(C(=O)c2ccc(/N=C/c3ccc(C(F)(F)F)cc3)cc2)c(OC)c1`, the inhibition is reported as 15.4%.
`CCN(CC)Cc1cc(Nc2ccnc3cc(Cl)ccc23)ccc1O` was tested, and the inhibition was 18.6%.
`O=C(Nc1ccc2c(c1)CCC2)c1ccc(C(=O)Nc2ccc3c(c2)CCC3)cc1` showed an inhibition of 0%.
With `O=c1oc2ccccc2c(O)c1C(CC(O)c1ccc(-c2ccc(Br)cc2)cc1)c1ccccc1` (configuration not stated) the inhibition was 0%.
Work on `OC1=C2Nc3ccc(Cl)cc3N=C2OC1c1c[nH]c2ccc(COc3ccccc3)cc12` (configuration not stated) yielded an inhibition of 9.1%.
In the case of `COc1ccc(Cl)cc1C(=O)NCCc1ccc(S(=O)(=O)NC(=O)NC2CCCCC2)cc1` [GLYBURIDE], the inhibition is reported as 35%.
`O=C(Nc1ccc(Br)cc1)N1CCN(C(=O)Nc2ccc(Br)cc2)CC1` gave an inhibition of 0%.
`CC(C)(C)c1ccc(C(O)CCCN2CCC(C(O)(c3ccccc3)c3ccccc3)CC2)cc1` (configuration not stated) showed an inhibition of 0%.
In the case of `O=C(c1ccc(-c2ccccc2)cc1)c1cccc(/N=C/c2cccc(C(F)(F)F)c2)c1`, the inhibition is reported as 33.8%.
In the case of `COc1ccc(OCCCn2cc(-c3ccc(Cl)c(Cl)c3)c(=N)[nH]c2=O)cc1`, the inhibition is reported as 0%.
In the case of `C/C=C/c1ccc2oc(-c3ccc(OC4OC(C)C(O)C(O)C4O)cc3)c(C)c2c1` (configuration not stated), the inhibition is reported as 9%.
Compound `CCCCOc1ccc2nccc(N/N=C/c3ccc(OC)c4ccccc34)c2c1` has an inhibition of 25.4%.
In the case of `CCN(CC)CCC(=O)c1ccc(Nc2ccnc3cc(Cl)ccc23)cc1`, the inhibition is reported as 20.3%.
Work on `COc1ccc(/C=N/c2ccc(C(=O)c3ccc(OC)cc3OC)cc2)cc1` yielded an inhibition of 19.5%.
In the case of `CCSc1nc2ccc(/N=C\c3ccc(NS(=O)(=O)c4ccccc4)cc3O)cc2s1`, the inhibition is reported as 0%.
Compound `CCCCCCCCOC(=O)c1ccc2c(c1)Nc1cc3ccccc3cc1N2` has an inhibition of 33%.
`CCOc1ccc(/N=C/c2ccc(O)c(OC)c2)c(O)c1` was tested, and the inhibition was 25.5%.
Compound `COc1cccc(/C=N/c2ccc(C(=O)c3ccc(OC)cc3OC)cc2)c1` has an inhibition of 23.7%.
With `COc1ccc(C(=O)c2cccc(/N=C/c3ccccc3)c2)cc1` the inhibition was 12.6%.
`Clc1ccc2c(NCCCC/N=C/c3ccccc3)cccc2c1` was tested, and the inhibition was 0%.
In the case of `O=C(CCCCC(=O)Nc1c(I)cc(I)c(C(=O)O)c1I)Nc1c(I)cc(I)c(C(=O)O)c1I`, the inhibition is reported as 15.9%.
In the case of `COc1ccc(/C=N/c2ccc(C(=O)c3ccccc3)cc2)cc1`, the inhibition is reported as 19.9%.
`COc1ccc2nc3cc(Cl)ccc3c(Nc3ccc(C(O)CCn4cccc4)cc3)c2c1` (configuration not stated) was tested, and the inhibition was 13.4%.
`COc1ccc(/C=N/c2cccc(C(=O)c3ccc(OC)cc3)c2)cc1` was tested, and the inhibition was 14.8%.
Work on `Cc1cc[n+](CC(=O)CCc2ccc(C(=O)C[n+]3ccc(C)cc3)cc2)cc1` yielded an inhibition of 6%.
With `O=C(NC(=O)c1c(F)cccc1F)Nc1ccc(Cl)c(Oc2ncc(C(F)(F)F)cc2Cl)c1` the inhibition was 0%.
In the case of `Cc1ccc(S(=O)(=O)Nc2cccc3c(NS(=O)(=O)c4ccc(C)cc4)cccc23)cc1`, the inhibition is reported as 0%.
Work on `COc1ccc(/N=C/c2ccc(N(CCC#N)S(=O)(=O)c3ccccc3)cc2)cc1` yielded an inhibition of 0%.
Compound `CC(C)C[C@H]1C(=O)N2CCC[C@H]2[C@]2(O)O[C@](NC(=O)[C@@H]3C=C4c5cccc6[nH]c(Br)c(c56)C[C@H]4N(C)C3)(C(C)C)C(=O)N12` has an inhibition of 12.3%.
With `CC(C)[C@H](Nc1ccc(C(F)(F)F)cc1Cl)C(=O)OC(C#N)c1cccc(Oc2ccccc2)c1` (some centres not stated) the inhibition was 0%.
With `COc1cc(N)c(Cl)cc1C(=O)NC1CCN(CCCOc2ccc(F)cc2)CC1OC` (configuration not stated) the inhibition was 10.6%.
Work on `COc1ccc(C(=O)c2ccc(/N=C/c3ccc(C(C)(C)C)cc3)cc2)c(OC)c1` yielded an inhibition of 24.9%.
`CC(C)OC(=O)CCC/C=C\C[C@@H]1[C@@H](CC[C@@H](O)CCc2ccccc2)[C@H](O)C[C@@H]1O` was tested, and the inhibition was 11.4%.
`O=C(c1ccccc1)c1ccccc1NCC(O)COc1ccc(Cl)cc1` (configuration not stated) was tested, and the inhibition was 0%.
Compound `O=C(c1ccc(/N=C/c2cccc(C(F)(F)F)c2)cc1)c1ccc(-c2ccccc2)cc1` has an inhibition of 9.8%.
`CCCNCC(O)COc1ccccc1C(=O)CCc1ccccc1` (configuration not stated) was tested, and the inhibition was 0%.
In the case of `O=C(Nc1ccc(Cl)cc1C(F)(F)F)Oc1ccc(OCc2ccccc2)cc1`, the inhibition is reported as 22.1%.
`COc1ccc(CCN2CCC(Nc3nc4ccccc4n3Cc3ccc(F)cc3)CC2)cc1` was tested, and the inhibition was 20.8%.
`C[C@]12CC[C@@H]3c4ccc(O)cc4C[C@@H](CCCCCCCCC[S+]([O-])CCCC(F)(F)C(F)(F)F)[C@H]3[C@@H]1CC[C@@H]2O` (some centres not stated) was tested, and the inhibition was 5.7%.
With `O=C(Nc1ccc(Cl)c(Cl)c1)OCC(Cl)COc1ccc(Cl)cc1` (configuration not stated) the inhibition was 0%.
Compound `Cc1ccc(Nc2ccc(Nc3ccc(C)cc3)c3c2C(=O)c2cccc(O)c2C3=O)cc1` has an inhibition of 14%.
In the case of `CCN(CC)c1ccc(Nc2ccc(CC(=O)c3ccccc3)cc2)cc1`, the inhibition is reported as 52.5%.
`O=C(c1ccccc1)c1cccc(/N=C/c2ccc(C(F)(F)F)cc2)c1` was tested, and the inhibition was 26.3%.
`N=c1[nH]c(=O)n(CCCOc2ccccc2)cc1-c1ccc(Cl)c(Cl)c1` gave an inhibition of 0%.
Work on `CCCCOc1ccc(NC(=N)Nc2ccc(Cl)cc2)cc1` yielded an inhibition of 0%.
Work on `Cc1cc2c(cc1C)NC1=C(O)C(c3c[nH]c4ccc(COc5ccccc5)cc34)OC1=N2` (configuration not stated) yielded an inhibition of 0%.
`O=C(c1ccccc1)c1cc(Cl)ccc1NCC(O)COc1ccc(Cl)cc1` (configuration not stated) gave an inhibition of 8.1%.
In the case of `O=S(=O)(Nc1ccc(CSc2ccc(Cl)cc2)cc1)c1ccccc1`, the inhibition is reported as 82.5%.
`N=C(Nc1cccc2ccccc12)SCCCSC(=N)Nc1cccc2ccccc12` gave an inhibition of 0%.
Compound `OC(COc1c(Cl)cc(Cl)cc1Cl)COc1c(Cl)cc(Cl)cc1Cl` has an inhibition of 0%.
`Cc1ccc(Nc2ccc(Nc3ccc(C)cc3)c3c2C(=O)c2cc(Cl)c(Cl)cc2C3=O)cc1` showed an inhibition of 20.8%.
With `CC(C)OC(=O)CCC/C=C\C[C@@H]1[C@@H](/C=C/[C@@H](O)COc2cccc(C(F)(F)F)c2)[C@H](O)C[C@@H]1O` the inhibition was 0%.
Work on `COc1ccc(C(=O)c2ccc(/N=C/c3cccc(C(F)(F)F)c3)cc2)c(OC)c1` yielded an inhibition of 14.9%.
In the case of `N=c1[nH]c(=O)n(CCCOc2cccc(Cl)c2)cc1-c1ccc(Cl)c(Cl)c1`, the inhibition is reported as 0%.
`CC(C)(C(=O)O)c1ccc(C(O)CCCN2CCC(C(O)(c3ccccc3)c3ccccc3)CC2)cc1` (configuration not stated) showed an inhibition of 0%.
With `OCc1cc(C(O)CNCCCCCCOCCCCc2ccccc2)ccc1O` (configuration not stated) the inhibition was 27.4%.
For `C=CCc1cccc(/C=N/c2ccccc2NS(=O)(=O)c2ccc(C)cc2)c1O`, the inhibition was 22.6%.
For `Cc1cc(Cl)c(Cl)cc1NC(=O)c1cccc(C(=O)Nc2cc(Cl)c(Cl)cc2C)c1`, the inhibition was 0%.
`O=C(NCCCOc1ccc(Cl)c(Cl)c1)NCCc1ccc(Cl)c(Cl)c1` showed an inhibition of 0%.
`CCOc1cc(C2SCC(=O)N2c2ccc(Oc3ccc(Cl)cc3)c(Cl)c2)ccc1O` (configuration not stated) gave an inhibition of 6.7%.
